Each structure is given as a SMILES string. Like-named read-outs stand apart in the source and are kept apart here.

The target of one data set is Menin-MLL (Homo sapiens (Human), UniProt O00255). In words: Determination of binding constants (Ki) to Menin-MLL (HTRF). Background: Time-resolved FRET reads energy transfer from a long-lived donor to a nearby acceptor.
In the next data set the target is hERG (Homo sapiens (Human), UniProt Q12809). In words: Patch clamp assay (hERG tail currents, whole-cell). The note with it: hERG transfected HEK 293 cells; for hERG % Remaining 30 μM: 30 μM compound; for hERG % Remaining 10 μM: 10 μM compound. The data set is classed as cell-based. (In general: The patch-clamp technique gives a direct electrical read-out from membranes.)
hERG, sequence (Q12809 whole entry): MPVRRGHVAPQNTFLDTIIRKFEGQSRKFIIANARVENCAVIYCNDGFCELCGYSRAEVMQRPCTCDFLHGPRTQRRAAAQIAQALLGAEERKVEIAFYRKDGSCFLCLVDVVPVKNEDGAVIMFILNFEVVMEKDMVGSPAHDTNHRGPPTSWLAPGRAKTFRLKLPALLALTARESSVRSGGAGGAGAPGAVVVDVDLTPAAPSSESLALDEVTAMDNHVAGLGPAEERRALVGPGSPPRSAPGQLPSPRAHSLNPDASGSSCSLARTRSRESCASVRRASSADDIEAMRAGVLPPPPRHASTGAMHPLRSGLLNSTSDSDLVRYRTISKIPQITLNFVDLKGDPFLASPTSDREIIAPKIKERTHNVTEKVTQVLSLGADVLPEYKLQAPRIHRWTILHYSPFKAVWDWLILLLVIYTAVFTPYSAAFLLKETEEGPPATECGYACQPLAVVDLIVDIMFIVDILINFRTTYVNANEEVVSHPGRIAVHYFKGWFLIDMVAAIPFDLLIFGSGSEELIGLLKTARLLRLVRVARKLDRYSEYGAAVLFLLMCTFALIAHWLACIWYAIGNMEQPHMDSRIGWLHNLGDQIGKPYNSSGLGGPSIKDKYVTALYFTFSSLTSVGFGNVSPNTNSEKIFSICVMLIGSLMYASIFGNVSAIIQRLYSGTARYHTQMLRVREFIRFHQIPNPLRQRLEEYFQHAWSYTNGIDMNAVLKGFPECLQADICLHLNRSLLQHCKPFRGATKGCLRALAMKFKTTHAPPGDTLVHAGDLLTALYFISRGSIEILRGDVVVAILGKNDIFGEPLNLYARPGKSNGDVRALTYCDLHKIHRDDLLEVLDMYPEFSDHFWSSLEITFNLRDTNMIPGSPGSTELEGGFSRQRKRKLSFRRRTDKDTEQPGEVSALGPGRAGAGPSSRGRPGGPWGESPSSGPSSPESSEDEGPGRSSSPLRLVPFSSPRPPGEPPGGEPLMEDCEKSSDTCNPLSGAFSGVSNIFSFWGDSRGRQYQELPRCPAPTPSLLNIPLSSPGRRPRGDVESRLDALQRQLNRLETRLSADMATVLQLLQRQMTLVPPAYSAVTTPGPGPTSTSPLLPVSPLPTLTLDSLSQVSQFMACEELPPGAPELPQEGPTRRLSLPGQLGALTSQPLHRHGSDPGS

Setting [1] is: HTRF, 0.25 nM H-FL-Menin, 3.2 nM FITC-MLL-4-43, 24 hr incubation, read-out: Menin-MLL Ki HTRF Assay: Ki.
Where [2] appears, read: HTRF, 0.25 nM H-FL-Menin, 3.2 nM FITC-MLL-4-43, 24 hr incubation.

Menin-MLL, sequence (O00255 whole entry): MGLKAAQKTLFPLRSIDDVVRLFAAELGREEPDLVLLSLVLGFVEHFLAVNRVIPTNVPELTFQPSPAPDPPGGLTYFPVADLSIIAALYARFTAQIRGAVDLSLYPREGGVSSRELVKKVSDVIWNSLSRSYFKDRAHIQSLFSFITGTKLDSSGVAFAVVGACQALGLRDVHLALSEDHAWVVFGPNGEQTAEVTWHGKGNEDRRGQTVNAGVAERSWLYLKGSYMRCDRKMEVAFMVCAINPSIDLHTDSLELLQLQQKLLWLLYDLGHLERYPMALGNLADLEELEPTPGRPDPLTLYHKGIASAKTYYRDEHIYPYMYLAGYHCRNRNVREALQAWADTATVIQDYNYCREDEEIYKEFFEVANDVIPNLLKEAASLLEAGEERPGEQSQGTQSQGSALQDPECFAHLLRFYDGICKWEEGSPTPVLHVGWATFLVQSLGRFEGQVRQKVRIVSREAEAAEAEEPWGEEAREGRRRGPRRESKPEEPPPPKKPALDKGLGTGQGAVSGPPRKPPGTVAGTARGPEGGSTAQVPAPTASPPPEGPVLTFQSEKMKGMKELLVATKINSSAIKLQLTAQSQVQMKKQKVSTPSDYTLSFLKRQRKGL

As to `CC(C)N(CC(F)F)C(=O)c1cc(F)ccc1Oc1cncnc1N1CC2(CCN(C[C@@H]3CC[C@@H](NS(=O)(=O)NCC(F)F)CO3)CC2)C1` [Compound 235, N-(2,2-Difluoroethyl)-2-((4-(7-(((2S,5R)-5-((N-(2,2-difluoroethyl)sulfamoyl)amino)tetrahydro-2H-pyran-2-yl)methyl)-2,7-diazaspiro[3.5]nonan-2-yl)pyrimidin-5-yl)oxy)-5-fluoro-N-isopropylbenzamide], the Ki (as a rule, a dissociation constant, usually derived from enzyme kinetics or from competition with a known ligand) at Menin-MLL was below 1 nM. On hERG, the “hERG % Remaining 30 μM” value is “+++ (“+++” means ≥66%)”.
For the compound `CC(C)N(CC#N)C(=O)c1cc(F)ccc1Oc1cncnc1N1CC2(CCN(C[C@@H]3CC[C@@H](NS(=O)(=O)N(C)C)CO3)CC2)C1` [Compound 181, N-(Cyanomethyl)-2-((4-(7-(((2S,5R)-5-((N,N-dimethylsulfamoyl)amino)tetrahydro-2H-pyran-2-yl)methyl)-2,7-diazaspiro[3.5]nonan-2-yl)pyrimidin-5-yl)oxy)-5-fluoro-N-isopropylbenzamide], on Menin-MLL (setting [1]), the Ki is below 1 nM. Further, at hERG, the “hERG % Remaining 30 μM” value is on record as “+++ (“+++” means ≥66%)”.
Turning to `CC(C)N(C(=O)c1cc(F)ccc1Oc1nncnc1N1CC2(CCN(C[C@@H]3CC[C@@H](NS(=O)(=O)N4CCC4)CO3)CC2)C1)C(C)C` [Compound 199, 2-((5-(7-(((2S,5R)-5-(Azetidine-1-sulfonamido)tetrahydro-2H-pyran-2-yl)methyl)-2,7-diazaspiro[3.5]nonan-2-yl)-1,2,4-triazin-6-yl)oxy)-5-fluoro-N,N-diisopropylbenzamide], the Ki at Menin-MLL (setting [1]) is below 1 nM. Further, the “hERG % Remaining 30 μM” value on hERG is “+++ (“+++” means ≥66%)”.
For `CC(C)N(C(=O)c1cc(F)ccc1Oc1cncnc1N1CC2(CCN(C[C@@H]3CC[C@@H](NS(=O)(=O)N4CCC[C@H]4C)CO3)CC2)C1)C(C)C` [Compound 203, 5-Fluoro-N,N-diisopropyl-2-((4-(7-(((2S,5R)-5-(((R)-2-methylpyrrolidine)-1-sulfonamido)tetrahydro-2H-pyran-2-yl)methyl)-2,7-diazaspiro[3.5]nonan-2-yl)pyrimidin-5-yl)oxy)benzamide], in that order: below 1 nM and “+ (“+” means <33%)”.
`CCN(C(=O)c1cc(F)ccc1Oc1cncnc1N1CC2(CCN(C[C@@H]3CC[C@@H](NS(=O)(=O)CC)CO3)CC2)C1)C(C)C` [Compound 2, N-ethyl-2-((4-(7-(((2S,5R)-5-(ethylsulfonamido)tetrahydro-2H-pyran-2-yl)methyl)-2,7-diazaspiro[3.5]nonan-2-yl)pyrimidin-5-yl)oxy)-5-fluoro-N-isopropylbenzamide]: the EC50 (as a rule, the concentration needed to bring the measured effect to its halfway point) at Menin-MLL (setting [2]) is below 50 nM. Further, the Ki at Menin-MLL (setting [1]) was below 1 nM. Moreover, on hERG, the “hERG % Remaining 10 μM” value is reported as “+++ (“+++” means ≥66%)” and the “hERG % Remaining 30 μM” value is given as “+++ (“+++” means ≥66%)”.
In the case of `C[C@@H]1COC[C@@H](C)N1C(=O)c1cc(F)ccc1Oc1cncnc1N1CC2(CCN(C[C@@H]3CC[C@@H](NS(=O)(=O)N4CCC[C@@H]4C)CO3)CC2)C1` [Compound 209, (S)-N-((3R,6S)-6-((2-(5-(2-((3R,5R)-3,5-Dimethylmorpholine-4-carbonyl)-4-fluorophenoxy)pyrimidin-4-yl)-2,7-diazaspiro[3.5]nonan-7-yl)methyl)tetrahydro-2H-pyran-3-yl)-2-methylpyrrolidine-1-sulfonamide], the Ki on Menin-MLL (setting [1]) is below 1 nM. Also, at hERG, the “hERG % Remaining 30 μM” value is “+++ (“+++” means ≥66%)”.
Consider `CCN(C(=O)c1cc(F)ccc1Oc1cncnc1N1CC2(CCN(C[C@@H]3CC[C@@H](NS(=O)(=O)N4CCOCC4)CO3)CC2)C1)C(C)C` [Compound 64, N-Ethyl-5-fluoro-N-isopropyl-2-((4-(7-(((2S,5R)-5-(morpholine-4-sulfonamido)tetrahydro-2H-pyran-2-yl)methyl)-2,7-diazaspiro[3.5]nonan-2-yl)pyrimidin-5-yl)oxy)benzamide], for which the EC50 at Menin-MLL (setting [2]) was below 50 nM. Moreover, the Ki at Menin-MLL (setting [1]) is below 1 nM. Further, on hERG, the “hERG % Remaining 10 μM” value is given as “+++ (“+++” means ≥66%)”; the “hERG % Remaining 30 μM” value is “++ (“++” means ≥33% and <66%)”.
Consider `CNS(=O)(=O)N[C@@H]1CC[C@@H](CN2CCC3(CC2)CN(c2ncncc2Oc2ccc(F)cc2C(=O)N(C(C)C)C2CC(F)(F)C2)C3)OC1` [Compound 154], for which, at Menin-MLL (setting [1]), the Ki is below 1 nM. Moreover, at hERG, the “hERG % Remaining 10 μM” value is “+++ (“+++” means ≥66%)”; the “hERG % Remaining 30 μM” value was “++ (“++” means ≥33% and <66%)”.
`CCN(C(=O)c1cc(F)ccc1Oc1cncnc1N1CC2(CCN(C[C@@H]3CC[C@@H](NS(=O)(=O)N(C)C)CO3)CC2)C1)C(C)C` [Compound 49, 2-((4-(7-(((2S,5R)-5-((N,N-dimethylsulfamoyl)amino)tetrahydro-2H-pyran-2-yl)methyl)-2,7-diazaspiro[3.5]nonan-2-yl)pyrimidin-5-yl)oxy)-N-ethyl-5-fluoro-N-isopropylbenzamide] gave an EC50 at Menin-MLL (setting [2]) below 50 nM. In addition, on Menin-MLL (setting [1]), the Ki is below 1 nM. At hERG, the “hERG % Remaining 10 μM” value is reported as “+++ (“+++” means ≥66%)”; the “hERG % Remaining 30 μM” value is reported as “+++ (“+++” means ≥66%)”; the IC50 (as a rule, the midpoint of a concentration-inhibition curve) was at least 50 µM.
`CCN(C(=O)c1cc(F)ccc1Oc1cncnc1N1CC2(CCN(C[C@@H]3CC[C@@H](NS(=O)(=O)c4ccc(=O)[nH]c4C)CO3)CC2)C1)C(C)C` [Compound 217, N-Ethyl-5-fluoro-N-isopropyl-2-((4-(7-(((2S,5R)-5-((2-methyl-6-oxo-1,6-dihydropyridine)-3-sulfonamido)tetrahydro-2H-pyran-2-yl)methyl)-2,7-diazaspiro[3.5]nonan-2-yl)pyrimidin-5-yl)oxy)benzamide]: the Ki on Menin-MLL (setting [1]) was below 1 nM. On hERG, the “hERG % Remaining 30 μM” value was “+++ (“+++” means ≥66%)”.
Regarding `CC(C)N(C(=O)c1cc(F)ccc1Oc1cncnc1N1CC2(CCN(C[C@@H]3CC[C@@H](NS(=O)(=O)c4cnn(C)c4Cl)CO3)CC2)C1)C(C)C` [Compound 82, 2-((4-(7-(((2S,5R)-5-((5-Chloro-1-methyl-1H-pyrazole)-4-sulfonamido)tetrahydro-2H-pyran-2-yl)methyl)-2,7-diazaspiro[3.5]nonan-2-yl)pyrimidin-5-yl)oxy)-5-fluoro-N,N-diisopropylbenzamide], the Ki at Menin-MLL (setting [1]) was below 1 nM. In addition, at hERG, the “hERG % Remaining 10 μM” value was “++ (“++” means ≥33% and <66%)”; the “hERG % Remaining 30 μM” value is on record as “+ (“+” means <33%)”.
For the compound `CC(C)N(CCC#N)C(=O)c1cc(F)ccc1Oc1cncnc1N1CC2(CCN(C[C@@H]3CC[C@@H](NS(=O)(=O)c4ccccc4)CO3)CC2)C1` [Compound 136, N-(2-Cyanoethyl)-5-fluoro-N-isopropyl-2-((4-(7-(((2S,5R)-5-(phenylsulfonamido)tetrahydro-2H-pyran-2-yl)methyl)-2,7-diazaspiro[3.5]nonan-2-yl)pyrimidin-5-yl)oxy)benzamide], on Menin-MLL (setting [2]), the EC50 is below 50 nM. Also, on Menin-MLL (setting [1]), the Ki was below 1 nM. Further, on hERG, the “hERG % Remaining 10 μM” value is recorded as “+++ (“+++” means ≥66%)” and the “hERG % Remaining 30 μM” value is recorded as “+ (“+” means <33%)”.
`CC(C)N(CC(F)F)C(=O)c1cc(F)ccc1Oc1cncnc1N1CC2(CCN(C[C@@H]3CC[C@@H](NS(=O)(=O)N(C)C)CO3)CC2)C1` [Compound 95, N-(2,2-Difluoroethyl)-2-((4-(7-(((2S,5R)-5-((N,N-dimethylsulfamoyl)amino)tetrahydro-2H-pyran-2-yl)methyl)-2,7-diazaspiro[3.5]nonan-2-yl)pyrimidin-5-yl)oxy)-5-fluoro-N-isopropylbenzamide] had an EC50 at Menin-MLL (setting [2]) below 50 nM. Besides, the Ki on Menin-MLL (setting [1]) is below 1 nM. For the same compound, on hERG, the “hERG % Remaining 10 μM” value was “+++ (“+++” means ≥66%)”; the “hERG % Remaining 30 μM” value was “++ (“++” means ≥33% and <66%)”; the IC50 was below 25 µM.
`CCN(C(=O)c1cc(F)ccc1Oc1cncnc1N1CC2(CCN(C[C@@H]3CC[C@@H](NS(=O)(=O)c4ccccc4OC)CO3)CC2)C1)C(C)C` [Compound 65, N-Ethyl-5-fluoro-N-isopropyl-2-((4-(7-(((2S,5R)-5-((2-methoxyphenyl)sulfonamido)tetrahydro-2H-pyran-2-yl)methyl)-2,7-diazaspiro[3.5]nonan-2-yl)pyrimidin-5-yl)oxy)benzamide] showed an EC50 on Menin-MLL (setting [2]) below 50 nM. In addition, at Menin-MLL (setting [1]), the inhibition constant Ki is below 1 nM. At hERG, the “hERG % Remaining 10 μM” value was “++ (“++” means ≥33% and <66%)”; the “hERG % Remaining 30 μM” value was “+ (“+” means <33%)”.
For `CC(C)N(C(=O)c1cc(F)ccc1Oc1cncnc1N1CC2(CCN(C[C@@H]3CC[C@@H](NS(=O)(=O)C4CC4)CO3)CC2)C1)[C@@H]1CCOC1` [Compound 164, 2-((4-(7-(((2S,5R)-5-(Cyclopropanesulfonamido)tetrahydro-2H-pyran-2-yl)methyl)-2,7-diazaspiro[3.5]nonan-2-yl)pyrimidin-5-yl)oxy)-5-fluoro-N-isopropyl-N-((R)-tetrahydrofuran-3-yl)benzamide], the EC50 on Menin-MLL (setting [2]) was below 50 nM. On Menin-MLL (setting [1]), the Ki is below 1 nM. On hERG, the “hERG % Remaining 10 μM” value was “+++ (“+++” means ≥66%)” and the “hERG % Remaining 30 μM” value is on record as “+++ (“+++” means ≥66%)”.
With `CC(C)N(CC(F)F)C(=O)c1cc(F)ccc1Oc1cncnc1N1CC2(CCN(C[C@@H]3CC[C@@H](NS(=O)(=O)N(C)CCCO)CO3)CC2)C1` [Compound 214, N-(2,2-difluoroethyl)-5-fluoro-2-((4-(7-(((2S,5R)-5-((N-(3-hydroxypropyl)-N-methylsulfamoyl)amino)tetrahydro-2H-pyran-2-yl)methyl)-2,7-diazaspiro[3.5]nonan-2-yl)pyrimidin-5-yl)oxy)-N-isopropylbenzamide], the Ki at Menin-MLL (setting [1]) was below 1 nM. The “hERG % Remaining 30 μM” value on hERG was “+++ (“+++” means ≥66%)”.
Consider `CCN(C(=O)c1cc(F)ccc1Oc1cncnc1N1CC2(CCN(C[C@@H]3CC[C@@H](NS(=O)(=O)c4ccc(OC)cc4)CO3)CC2)C1)C(C)C` [Compound 62, N-Ethyl-5-fluoro-N-isopropyl-2-((4-(7-(((2S,5R)-5-((4-methoxyphenyl)sulfonamido)tetrahydro-2H-pyran-2-yl)methyl)-2,7-diazaspiro[3.5]nonan-2-yl)pyrimidin-5-yl)oxy)benzamide], for which the half-maximal effective concentration (EC50) at Menin-MLL (setting [2]) was below 50 nM. The Ki on Menin-MLL (setting [1]) was below 1 nM. At hERG, the “hERG % Remaining 10 μM” value is “+ (“+” means <33%)” and the “hERG % Remaining 30 μM” value is “+ (“+” means <33%)”.

For the origin of these results see patent publication US11919901B2 (Syndax Pharmaceuticals, Inc., priority 2021, dated 2024).
